Laboratory results reported in ChEMBL document CHEMBL5465560, “Selectivity Literature for EUbOPEN Chemogenomic Library” (2024).

What was measured:
[1] = target: T1, Cyclin-dependent kinase-like 2 (Homo sapiens) (UniProt Q92772); assay: Selectivity interaction (KinomeScan (DiscoverX)) EUB0000666a CDKL2; conditions: at 10 µM
T1 sequence (whole entry): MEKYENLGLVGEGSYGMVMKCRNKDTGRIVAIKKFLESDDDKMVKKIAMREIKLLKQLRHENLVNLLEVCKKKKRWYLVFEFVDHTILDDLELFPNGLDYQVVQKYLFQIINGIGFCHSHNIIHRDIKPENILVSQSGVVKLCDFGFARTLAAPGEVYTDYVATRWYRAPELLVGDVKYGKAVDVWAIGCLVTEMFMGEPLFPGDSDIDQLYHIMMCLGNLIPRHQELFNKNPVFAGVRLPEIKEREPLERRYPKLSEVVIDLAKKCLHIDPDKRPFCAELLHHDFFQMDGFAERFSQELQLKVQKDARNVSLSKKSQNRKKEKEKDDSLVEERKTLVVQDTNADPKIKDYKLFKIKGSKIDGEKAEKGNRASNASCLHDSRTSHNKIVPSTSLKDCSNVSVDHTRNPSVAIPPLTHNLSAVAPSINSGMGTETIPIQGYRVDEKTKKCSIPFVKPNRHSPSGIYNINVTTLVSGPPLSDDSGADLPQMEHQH

[2] = target: Tyrosine-protein kinase JAK1 (Homo sapiens, UniProt P23458); assay: Selectivity interaction (KinomeScan (DiscoverX)) EUB0001079a JAK1; conditions: at 1 µM
[3] = target: Calcium/calmodulin-dependent protein kinase type II subunit beta (Homo sapiens) (UniProt Q13554); assay: Selectivity interaction (ActivX KiNativ screen (kinase selectivity in THP-1 cell lysates)) EUB0000639a CAMK2B; type: subcellular; conditions: lysate, at 5 µM
[4] = target: Tyrosine-protein kinase Fer (Homo sapiens) (UniProt P16591); assay: Selectivity interaction (Ambit KINOMEscan and KiNATiv profiling in Jurkat cells) EUB0000090b FER; type: cell-based; conditions: at 1 µM
Sequence of Tyrosine-protein kinase Fer (Homo sapiens) (P16591 whole entry, looked up): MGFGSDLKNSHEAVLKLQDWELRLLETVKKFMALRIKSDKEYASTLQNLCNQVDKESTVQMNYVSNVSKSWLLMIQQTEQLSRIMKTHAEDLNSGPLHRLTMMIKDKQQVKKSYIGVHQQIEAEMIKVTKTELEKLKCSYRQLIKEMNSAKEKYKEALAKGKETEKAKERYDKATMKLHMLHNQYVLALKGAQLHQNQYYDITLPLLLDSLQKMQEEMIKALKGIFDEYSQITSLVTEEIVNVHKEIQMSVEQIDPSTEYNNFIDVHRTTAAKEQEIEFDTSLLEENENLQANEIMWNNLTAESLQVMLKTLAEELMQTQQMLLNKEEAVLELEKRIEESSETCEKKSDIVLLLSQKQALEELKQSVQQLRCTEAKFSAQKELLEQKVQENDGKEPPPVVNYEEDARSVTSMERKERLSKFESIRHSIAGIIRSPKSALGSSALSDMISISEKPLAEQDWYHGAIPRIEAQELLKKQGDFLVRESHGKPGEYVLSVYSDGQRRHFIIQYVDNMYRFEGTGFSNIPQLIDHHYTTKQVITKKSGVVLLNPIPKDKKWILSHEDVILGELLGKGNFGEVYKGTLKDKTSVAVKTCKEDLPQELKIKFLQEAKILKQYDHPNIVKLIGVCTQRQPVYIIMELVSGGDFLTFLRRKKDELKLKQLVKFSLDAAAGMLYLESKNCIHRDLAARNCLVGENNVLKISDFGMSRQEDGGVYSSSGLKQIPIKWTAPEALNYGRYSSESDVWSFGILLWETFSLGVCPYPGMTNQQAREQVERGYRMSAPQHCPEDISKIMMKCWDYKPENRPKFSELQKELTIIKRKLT

[5] = target: Serine/threonine-protein kinase VRK2 (Homo sapiens) (UniProt Q86Y07); assay: Selectivity interaction (KinomeScan (DiscoverX)) EUB0000045b VRK2
Sequence of Serine/threonine-protein kinase VRK2 (Homo sapiens) (Q86Y07 whole entry): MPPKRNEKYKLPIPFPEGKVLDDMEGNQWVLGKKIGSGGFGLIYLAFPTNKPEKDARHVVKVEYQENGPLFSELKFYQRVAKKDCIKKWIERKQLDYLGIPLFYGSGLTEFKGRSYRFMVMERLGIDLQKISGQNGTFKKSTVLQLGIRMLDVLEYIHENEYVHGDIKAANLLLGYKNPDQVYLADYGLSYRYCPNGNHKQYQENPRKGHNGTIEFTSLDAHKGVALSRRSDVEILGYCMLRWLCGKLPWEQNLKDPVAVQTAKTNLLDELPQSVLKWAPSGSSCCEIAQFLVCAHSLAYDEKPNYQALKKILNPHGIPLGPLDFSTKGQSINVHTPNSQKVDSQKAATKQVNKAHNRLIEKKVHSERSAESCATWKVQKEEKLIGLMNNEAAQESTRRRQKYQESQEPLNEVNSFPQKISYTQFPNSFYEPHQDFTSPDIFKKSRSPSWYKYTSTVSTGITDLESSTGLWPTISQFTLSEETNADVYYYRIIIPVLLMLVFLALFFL

[6] = target: T2, Serine/threonine-protein kinase ULK3 (Homo sapiens) (UniProt Q6PHR2); conditions: at 10 µM
T2 sequence (whole entry): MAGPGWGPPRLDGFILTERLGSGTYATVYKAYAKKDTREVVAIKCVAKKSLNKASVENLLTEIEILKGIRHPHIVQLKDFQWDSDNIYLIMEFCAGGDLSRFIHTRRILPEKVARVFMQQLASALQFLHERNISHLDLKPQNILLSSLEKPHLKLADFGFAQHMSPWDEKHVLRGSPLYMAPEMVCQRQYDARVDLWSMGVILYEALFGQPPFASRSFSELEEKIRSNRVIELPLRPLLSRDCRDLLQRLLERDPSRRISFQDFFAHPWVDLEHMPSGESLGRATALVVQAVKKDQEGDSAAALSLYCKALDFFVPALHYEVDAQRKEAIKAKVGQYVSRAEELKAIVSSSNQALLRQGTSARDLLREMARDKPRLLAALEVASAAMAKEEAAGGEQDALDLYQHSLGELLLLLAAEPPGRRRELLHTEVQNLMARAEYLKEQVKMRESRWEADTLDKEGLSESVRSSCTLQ

[7] = target: Serine/threonine-protein kinase MARK2 (Homo sapiens) (UniProt Q7KZI7); assay: Selectivity interaction (ActivX KiNativ screen (ex vivo kinase selectivity in human PBMCs)) EUB0001619a MARK2; type: cell-based; conditions: PBMC, at 1 µM
Sequence of Serine/threonine-protein kinase MARK2 (Homo sapiens) (Q7KZI7 whole entry): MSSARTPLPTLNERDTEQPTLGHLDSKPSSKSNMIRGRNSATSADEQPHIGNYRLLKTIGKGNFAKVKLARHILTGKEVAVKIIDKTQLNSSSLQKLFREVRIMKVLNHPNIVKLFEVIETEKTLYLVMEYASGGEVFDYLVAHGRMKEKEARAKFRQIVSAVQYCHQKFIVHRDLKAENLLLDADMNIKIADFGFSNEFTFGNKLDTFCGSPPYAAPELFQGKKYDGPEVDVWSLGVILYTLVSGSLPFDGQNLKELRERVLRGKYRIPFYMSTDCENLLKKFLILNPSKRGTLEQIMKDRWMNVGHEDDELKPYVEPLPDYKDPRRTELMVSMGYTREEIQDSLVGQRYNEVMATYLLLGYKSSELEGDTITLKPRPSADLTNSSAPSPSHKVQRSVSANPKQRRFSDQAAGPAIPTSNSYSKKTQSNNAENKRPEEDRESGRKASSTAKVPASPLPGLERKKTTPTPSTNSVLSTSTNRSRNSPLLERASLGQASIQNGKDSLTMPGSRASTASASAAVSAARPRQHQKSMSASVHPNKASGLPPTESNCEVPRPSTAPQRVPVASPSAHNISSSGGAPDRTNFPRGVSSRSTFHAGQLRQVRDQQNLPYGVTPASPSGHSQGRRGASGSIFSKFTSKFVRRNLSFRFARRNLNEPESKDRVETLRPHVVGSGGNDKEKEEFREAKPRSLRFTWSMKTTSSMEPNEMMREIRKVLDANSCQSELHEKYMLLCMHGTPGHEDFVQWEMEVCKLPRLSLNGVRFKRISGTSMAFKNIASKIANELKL

[8] = target: Mitogen-activated protein kinase 7 (Homo sapiens) (UniProt Q13164); assay: Selectivity interaction (KinomeScan (DiscoverX)) EUB0001619a MAPK7; conditions: at 1 µM
Sequence of Mitogen-activated protein kinase 7 (Homo sapiens) (Q13164 2-816 limits assumed): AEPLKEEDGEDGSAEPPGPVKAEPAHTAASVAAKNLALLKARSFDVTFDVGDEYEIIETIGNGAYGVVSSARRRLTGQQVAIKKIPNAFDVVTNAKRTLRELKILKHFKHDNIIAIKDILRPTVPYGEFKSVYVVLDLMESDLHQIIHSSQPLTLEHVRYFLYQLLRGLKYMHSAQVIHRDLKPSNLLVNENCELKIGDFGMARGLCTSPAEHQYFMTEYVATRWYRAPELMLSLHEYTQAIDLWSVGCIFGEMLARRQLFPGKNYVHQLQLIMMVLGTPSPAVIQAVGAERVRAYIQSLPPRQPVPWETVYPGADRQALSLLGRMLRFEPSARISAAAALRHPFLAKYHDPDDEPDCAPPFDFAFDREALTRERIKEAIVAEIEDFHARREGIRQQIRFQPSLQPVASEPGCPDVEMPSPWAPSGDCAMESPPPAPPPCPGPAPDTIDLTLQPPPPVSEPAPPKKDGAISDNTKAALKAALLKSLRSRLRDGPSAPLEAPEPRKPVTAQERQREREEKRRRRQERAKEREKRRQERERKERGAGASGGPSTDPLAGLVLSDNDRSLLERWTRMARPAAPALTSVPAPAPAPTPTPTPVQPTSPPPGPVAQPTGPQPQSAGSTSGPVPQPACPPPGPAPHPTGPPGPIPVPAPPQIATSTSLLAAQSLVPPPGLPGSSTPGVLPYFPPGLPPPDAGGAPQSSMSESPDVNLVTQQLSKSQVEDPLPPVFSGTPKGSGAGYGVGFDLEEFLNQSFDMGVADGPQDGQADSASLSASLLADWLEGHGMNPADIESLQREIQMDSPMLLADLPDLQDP

[9] = target: Protein-tyrosine kinase 6 (Homo sapiens, UniProt Q13882); assay: Selectivity interaction (Upstate Kinase Profiler service (Millipore)) EUB0000056c PTK6; conditions: at 1 µM
Sequence of Protein-tyrosine kinase 6 (Q13882 whole entry, looked up): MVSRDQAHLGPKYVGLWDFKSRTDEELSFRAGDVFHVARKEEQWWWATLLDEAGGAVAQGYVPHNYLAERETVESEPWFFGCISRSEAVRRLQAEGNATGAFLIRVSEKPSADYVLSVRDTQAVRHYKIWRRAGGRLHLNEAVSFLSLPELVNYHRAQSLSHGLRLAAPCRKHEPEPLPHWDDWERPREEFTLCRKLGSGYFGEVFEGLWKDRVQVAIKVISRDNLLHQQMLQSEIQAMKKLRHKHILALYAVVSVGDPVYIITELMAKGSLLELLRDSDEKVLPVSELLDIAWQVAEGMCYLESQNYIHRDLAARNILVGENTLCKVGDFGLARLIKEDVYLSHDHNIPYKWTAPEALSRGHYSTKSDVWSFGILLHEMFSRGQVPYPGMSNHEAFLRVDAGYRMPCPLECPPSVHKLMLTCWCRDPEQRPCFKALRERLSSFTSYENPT

[10] = target: T3, Cyclin-dependent kinase 11A (Homo sapiens) (UniProt Q9UQ88); assay: Selectivity interaction (KinomeScan (DiscoverX)) EUB0000655a CDK11A; conditions: at 10 µM
T3 sequence (whole entry): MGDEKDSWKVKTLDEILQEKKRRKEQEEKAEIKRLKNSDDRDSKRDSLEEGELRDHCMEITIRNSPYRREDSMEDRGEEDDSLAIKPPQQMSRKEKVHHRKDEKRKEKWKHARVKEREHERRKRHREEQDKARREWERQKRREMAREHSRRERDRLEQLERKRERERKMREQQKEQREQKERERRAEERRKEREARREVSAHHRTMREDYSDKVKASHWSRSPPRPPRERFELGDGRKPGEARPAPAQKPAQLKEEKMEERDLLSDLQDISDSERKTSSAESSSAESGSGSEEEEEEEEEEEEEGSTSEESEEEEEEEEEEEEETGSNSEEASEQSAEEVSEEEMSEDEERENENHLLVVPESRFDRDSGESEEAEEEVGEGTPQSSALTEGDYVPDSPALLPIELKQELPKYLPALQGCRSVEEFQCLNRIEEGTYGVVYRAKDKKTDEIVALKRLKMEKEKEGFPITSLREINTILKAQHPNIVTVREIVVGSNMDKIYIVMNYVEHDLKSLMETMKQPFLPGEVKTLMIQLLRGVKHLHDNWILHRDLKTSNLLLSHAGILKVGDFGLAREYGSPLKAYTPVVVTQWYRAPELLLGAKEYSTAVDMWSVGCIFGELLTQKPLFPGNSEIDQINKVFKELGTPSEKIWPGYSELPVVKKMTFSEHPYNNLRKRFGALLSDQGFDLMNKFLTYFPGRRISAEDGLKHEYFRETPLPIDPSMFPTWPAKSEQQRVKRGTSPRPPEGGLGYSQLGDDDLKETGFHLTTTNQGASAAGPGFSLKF

[11] = target: Mitogen-activated protein kinase kinase kinase 1 (Homo sapiens, UniProt Q13233); assay: Selectivity interaction (KinomeScan (DiscoverX)) EUB0000655a MAP3K1; conditions: at 10 µM
[12] = target: Insulin-like growth factor 1 receptor (Homo sapiens, UniProt P08069); assay: Selectivity interaction (KinomeScan (DiscoverX)) EUB0000695a IGF1R; conditions: at 100 nM
[13] = target: Hepatocyte growth factor receptor (Homo sapiens, UniProt P08581); assay: (§1) Selectivity interaction (SelectScreen profiling (Invitrogen)) EUB0000607a MET; conditions: at 2 µM
[14] = tested on: Hepatocyte growth factor receptor (Homo sapiens), P08581 [M1250T]; assay: as §1; conditions: at 2 µM
Sequence of Hepatocyte growth factor receptor (Homo sapiens), P08581 [M1250T] (P08581 whole entry M1250T): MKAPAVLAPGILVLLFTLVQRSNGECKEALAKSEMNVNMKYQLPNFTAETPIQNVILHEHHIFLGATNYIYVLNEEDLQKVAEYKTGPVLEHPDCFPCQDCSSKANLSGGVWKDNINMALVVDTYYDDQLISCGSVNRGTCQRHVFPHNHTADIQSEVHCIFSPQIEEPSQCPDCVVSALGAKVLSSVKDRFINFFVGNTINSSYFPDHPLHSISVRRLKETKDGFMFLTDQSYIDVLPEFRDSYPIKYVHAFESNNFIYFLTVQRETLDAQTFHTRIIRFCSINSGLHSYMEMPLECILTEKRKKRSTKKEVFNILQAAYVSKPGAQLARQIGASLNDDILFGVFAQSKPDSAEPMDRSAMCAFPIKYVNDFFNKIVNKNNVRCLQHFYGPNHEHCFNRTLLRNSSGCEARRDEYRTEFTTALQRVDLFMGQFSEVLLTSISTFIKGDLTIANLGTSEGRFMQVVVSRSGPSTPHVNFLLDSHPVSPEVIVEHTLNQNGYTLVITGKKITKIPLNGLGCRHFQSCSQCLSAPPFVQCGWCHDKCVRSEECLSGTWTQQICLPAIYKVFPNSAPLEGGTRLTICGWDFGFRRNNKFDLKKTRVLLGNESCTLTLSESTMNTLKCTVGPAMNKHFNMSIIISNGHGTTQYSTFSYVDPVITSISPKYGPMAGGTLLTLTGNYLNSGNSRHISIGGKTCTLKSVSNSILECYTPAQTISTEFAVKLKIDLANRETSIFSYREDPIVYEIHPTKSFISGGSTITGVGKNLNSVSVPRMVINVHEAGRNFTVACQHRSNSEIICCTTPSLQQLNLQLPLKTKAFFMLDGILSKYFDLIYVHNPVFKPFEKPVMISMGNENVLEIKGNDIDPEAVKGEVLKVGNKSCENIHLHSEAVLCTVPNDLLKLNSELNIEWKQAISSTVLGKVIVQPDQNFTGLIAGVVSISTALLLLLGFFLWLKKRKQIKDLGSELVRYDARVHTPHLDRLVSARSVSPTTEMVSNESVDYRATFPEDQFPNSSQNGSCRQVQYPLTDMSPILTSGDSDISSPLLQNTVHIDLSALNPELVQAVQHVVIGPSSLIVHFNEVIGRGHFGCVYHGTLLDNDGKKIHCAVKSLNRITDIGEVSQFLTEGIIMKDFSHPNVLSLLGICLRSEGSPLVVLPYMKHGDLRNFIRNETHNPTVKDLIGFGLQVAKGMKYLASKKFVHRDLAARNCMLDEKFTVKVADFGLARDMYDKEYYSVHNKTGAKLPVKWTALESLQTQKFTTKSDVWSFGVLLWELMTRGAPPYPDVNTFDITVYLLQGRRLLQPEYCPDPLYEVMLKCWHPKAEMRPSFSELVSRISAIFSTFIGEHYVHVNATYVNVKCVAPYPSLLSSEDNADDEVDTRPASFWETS

O=C(NOC[C@H](O)CO)c1ccc(F)c(F)c1Nc1ccc(I)cc1F
% of control [1]: 87%

Nc1cnc(N2CCc3cc(S(=O)(=O)Nc4c(F)cc(Cl)cc4F)cc(N4CCCC4=O)c32)nc1 [TP-020n]
% of control [2]: 100%

CC[C@@H]1[C@H](F)C(=O)N[C@@H]1COc1nccc2cc(C(N)=O)c(OC)cc12 [ZIMLOVISERTIB]
% of inhibition [3]: 19.6%

CN(C)C/C=C/C(=O)Nc1ccc(C(=O)N2CCCC(Nc3ncc(Cl)c(-c4c[nH]c5ccccc45)n3)C2)cc1 (stereo not given)
% of control [4]: 82%

C=CC(=O)Nc1cc(-n2c(=O)ccc3cnc4ccc(-c5ccc(NS(C)(=O)=O)cc5)cc4c32)ccc1C
% of control ([5]; at 1 µM): 100%
% of control ([5]; at 10 µM): 86%

Cc1cc([C@@H](C)Nc2ccccc2C(=O)O)c2nc(N3CCOCC3)cc(=O)n2c1 [AZD-6482]
% of control [6]: 98%

N#Cc1cccc(-c2c[nH]c3ncnc(N4CCOCC4)c23)c1
% of inhibition [7]: 27%
% of control [8]: 100%

Cc1ccc(-c2ccc3c(ccc4sc5c(c43)NC[C@@H](C)NC5=O)n2)cn1
% of inhibition [9]: 0%

CN(C)CCOc1ccc(-c2nc(-c3ccncc3)c(-c3ccc4c(c3)CC/C4=N\O)[nH]2)cc1
% of control [10]: 86%
% of control [11]: 72%

Cc1cc(F)c(C(=O)Nc2cccc(-c3nncn3C(C)C)n2)cc1-n1cnc(C2CC2)c1
% of control [12]: 100%

CNC(=O)Nc1ccc(-c2nc(N3CC4CCC(C3)O4)c3cnn(C4CCC5(CC4)OCCO5)c3n2)cc1
% of inhibition [13]: 2%
% of inhibition [14]: 1%
